Experimental data reported in US12655116B2, “Substituted isophthalic acid diamides” (Bayer Aktiengesellschaft, priority 2020, dated 2026).

Key:
[1] = system: AMARE; assay: Pre-emergence herbicidal action against AMARE; type: in vivo, Amaranthus retroflexus
Summary of the method: (§1)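 Visual rating at 3 weeks vs untreated pots; 0–100% scale, 100% = plants died. Treatment: aqueous WP/EC spray onto covering soil, 600–800 l/ha, 0.2% wetter, seeds in sandy loam.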

[2] = system: SETVI; assay: Pre-emergence herbicidal action against SETVI; type: in vivo, Setaria viridis; conditions: dosage 80 g/ha
Summary of the method: as §1

[3] = system: AMARE; assay: Post-emergence herbicidal action against AMARE; type: in vivo, Amaranthus retroflexus; conditions: 20 g/ha, visual assessment about 3 weeks after treatment, 100% = plants have died, 0% = like control plants
Summary of the method: (§2)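 Weeds in sandy loam soil received a post-emergence spray at the one-leaf stage. Compounds were applied as WP or EC in water, 600 to 800 l/ha, with 0.2% wetting agent. Activity in % was judged visually after roughly 3 weeks against untreated plants.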

[4] = system: DIGSA; assay: Pre-emergence herbicidal action against DIGSA; type: in vivo, Digitaria sanguinalis
Summary of the method: as §1

[5] = system: ALOMY; assay: Pre-emergence herbicidal action against ALOMY; type: in vivo, Alopecurus myosuroides; conditions: 80 g/ha, pre-emergence, scored visually after 3 weeks vs untreated controls (100% = plants have died, 0% = like control plants)
Summary of the method: as §1

[6] = system: STEME; assay: Post-emergence herbicidal action against STEME; type: in vivo, Stellaria media
Protocol: Seeds of monocotyledonous and dicotyledonous weed and crop plants are laid out in sandy loam soil in wood-fiber pots, covered with soil and cultivated in a greenhouse under good growth conditions. 2 to 3 weeks after sowing, the test plants are treated at the one-leaf stage. The compounds of the invention, formulated in the form of wettable powders (WP) or as emulsion concentrates (EC), are then sprayed onto the green parts of the plants in the form of an aqueous suspension or emulsion at a water application rate equivalent to 600 to 800 l/ha, with addition of 0.2% wetting agent. After the test plants have been left to stand in the greenhouse under optimal growth conditions for about 3 weeks, the action of the preparations is assessed visually in comparison to untreated controls (herbicidal action in percent (%): 100% activity=the plants have died, 0% activity=like control plants). […] The tables below illustrate, in an illustrative manner, the post-emergence herbicidal action of the compounds of the invention, the herbicidal activity being stated in percent.

[7] = system: ECHCG; assay: Pre-emergence herbicidal action against ECHCG; type: in vivo, Echinochloa crus-galli; conditions: 80 g/ha
Summary of the method: as §1

[8] = system: VIOTR; assay: Post-emergence herbicidal action against VIOTR; type: in vivo, Viola tricolor
Summary of the method: as §2

[9] = system: AVEFA; assay: Pre-emergence herbicidal action against AVEFA; type: in vivo, Avena fatua; conditions: 80 g/ha, pre-emergence
Summary of the method: as §1

[10] = system: ABUTH; assay: Post-emergence herbicidal action against ABUTH; type: in vivo, Abutilon theophrasti; conditions: visual assessment about 3 weeks after treatment vs untreated controls
Summary of the method: as §2

[11] = system: STEME; assay: Pre-emergence herbicidal action against STEME; type: in vivo, Stellaria media
Summary of the method: as §1

[12] = system: DIGSA; assay: Post-emergence herbicidal action against DIGSA; type: in vivo, Digitaria sanguinalis; conditions: for Post-emergence action against DIGSA in %: 5 g/ha; for Post-emergence action against DIGSA: 20 g/ha
Summary of the method: as §2

[13] = system: POLCO; assay: Pre-emergence herbicidal action against POLCO; type: in vivo, Polygonum convolvulus; conditions: dosage 80 g/ha
Summary of the method: as §1

[14] = system: MATIN; assay: Post-emergence herbicidal action against MATIN; type: in vivo, Matricaria inodora
Summary of the method: as §2

[15] = system: ABUTH; assay: Pre-emergence herbicidal action against ABUTH; type: in vivo, Abutilon theophrasti; conditions: for Pre-emergence action against ABUTH (herbicidal activity): 80 g/ha, scored visually after 3 weeks vs untreated controls (100% = plants have died, 0% = like control plants); for Pre-emergence action against ABUTH (herbicidal activity in percent): dosage 20 g/ha, scored visually after 3 weeks vs untreated controls, 100% = plants have died, 0% = like control plants
Summary of the method: as §1

[16] = system: ECHCG; assay: Post-emergence herbicidal action against ECHCG; type: in vivo, Echinochloa crus-galli
Summary of the method: as §2

[17] = system: VIOTR; assay: Pre-emergence herbicidal action against VIOTR; type: in vivo, Viola tricolor
Summary of the method: as §1

[18] = system: ALOMY; assay: Post-emergence herbicidal action against ALOMY; type: in vivo, Alopecurus myosuroides; conditions: dosage 20 g/ha, visual assessment about 3 weeks after treatment vs untreated controls
Summary of the method: as §2

[19] = system: MATIN; assay: Pre-emergence herbicidal action against MATIN; type: in vivo, Matricaria inodora
Summary of the method: as §1

[20] = system: SETVI; assay: Post-emergence herbicidal action against SETVI; type: in vivo, Setaria viridis
Summary of the method: as §2

[21] = system: VERPE; assay: Pre-emergence herbicidal action against VERPE; type: in vivo, Veronica persica; conditions: dosage 80 g/ha
Summary of the method: as §1

[22] = system: PHBPU; assay: Post-emergence herbicidal action against PHBPU; type: in vivo, Pharbitis purpurea
Summary of the method: as §2

[23] = system: AVEFA; assay: Post-emergence herbicidal action against AVEFA; type: in vivo, Avena fatua; conditions: 20 g/ha, visual assessment about 3 weeks after treatment, 100% = plants have died, 0% = like control plants
Summary of the method: as §2

[24] = system: PHBPU; assay: Pre-emergence herbicidal action against PHBPU; type: in vivo, Pharbitis purpurea; conditions: dosage 80 g/ha
Summary of the method: as §1

[25] = system: VERPE; assay: Post-emergence herbicidal action against VERPE; type: in vivo, Veronica persica; conditions: 20 g/ha
Summary of the method: as §2

[26] = 20 g/ha, scored visually after 3 weeks vs untreated controls, 100% = plants have died, 0% = like control plants
[27] = 80 g/ha, scored visually after 3 weeks vs untreated controls (100% = plants have died, 0% = like control plants)

Structure (SMILES) | Pre-emergence action against AMARE in % [1, 26] [%] | Pre-emergence action against AMARE in % [1, 27] [%] | Post-emergence action at 20 g/ha against AMARE in % [3] [%] | Pre-emergence action against DIGSA in % ([4]; dosage 20 g/ha) [%] | Pre-emergence action against DIGSA in % ([4]; dosage 80 g/ha) [%] | Post-emergence action against STEME in % ([6]; 20 g/ha) [%] | Pre-emergence action against ECHCG in % [7] [%] | Post-emergence action against VIOTR in % ([8]; 20 g/ha) [%] | Post-emergence action against ABUTH in % ([10]; dosage 5 g/ha) [%] | Post-emergence action against ABUTH in % ([10]; dosage 20 g/ha) [%] | Pre-emergence action against STEME in % ([11]; dosage 20 g/ha) [%] | Pre-emergence action against STEME in % ([11]; dosage 80 g/ha) [%] | Post-emergence action against DIGSA in % [12] [%] | Post-emergence action against DIGSA [12] [%] | Post-emergence action against MATIN in % ([14]; dosage 20 g/ha) [%] | Pre-emergence action against ABUTH (herbicidal activity) [15] [%] | Pre-emergence action against ABUTH (herbicidal activity in percent) [15] [%] | Pre-emergence action against VIOTR in % ([17]; dosage 20 g/ha) [%] | Pre-emergence action against VIOTR in % ([17]; dosage 80 g/ha) [%] | Pre-emergence action against MATIN in % ([19]; dosage 80 g/ha) [%] | further results
Cc1nnc(NC(=O)c2ccc(C(F)(F)F)c(C(=O)NC3CC3)c2Cl)o1 [Example 6-118] | 80 | 100 | 100 | 90 | 100 | 100 | 100 | 80 | 80 | 90 | 90 | 100 | 100 | 100 | 80 | 100 | 100 | 90 | 90 | 100 | Pre-emergence action against SETVI in % [2]: 100%; Pre-emergence action against ALOMY (herbicidal activity) [5]: 100%; Pre-emergence action against AVEFA in % [9]: 90%; Pre-emergence action against POLCO in % [13]: 80%; Post-emergence action against ECHCG in % ([16]; dosage 20 g/ha): 90%; Post-emergence action against ALOMY in % [18]: 80%; Pre-emergence action against MATIN in % ([19]; dosage 20 g/ha): 90%
CCNC(=O)c1c(C(F)F)ccc(C(=O)Nc2nnco2)c1SC [Example 5-75] | 100 | 100 | 90 | 100 | 100 | 100 | 100 | 80 | 90 | 90 | 100 | 100 | 90 | 90 | 80 | 100 | 100 | 100 | 100 | 100 | Post-emergence action against SETVI in % ([20]; dosage 5 g/ha): 80%; Post-emergence action against SETVI in % ([20]; dosage 20 g/ha): 80%; Pre-emergence action against SETVI in % [2]: 100%; Post-emergence action against STEME in % ([6]; dosage 5 g/ha): 90%; Pre-emergence action against VERPE in % [21]: 90%; Post-emergence action against PHBPU in % ([22]; dosage 5 g/ha): 80%; Post-emergence action against PHBPU in % ([22]; dosage 20 g/ha): 80%; Post-emergence action at 20 g/ha against AVEFA in % [23]: 80%; Post-emergence action against ECHCG in % ([16]; dosage 5 g/ha): 80%; Post-emergence action against ECHCG in % ([16]; dosage 20 g/ha): 80%; Post-emergence action against ALOMY in % [18]: 80%; Pre-emergence action against MATIN in % ([19]; dosage 20 g/ha): 80%
CCNC(=O)c1c(C(F)F)ccc(C(=O)Nc2nnc(C)o2)c1C [Example 6-32] | 80 | 100 | 100 | 90 | 100 | 80 | 90 | – | 80 | 80 | – | 90 | 80 | 80 | – | 80 | – | – | – | 90 | Post-emergence action against SETVI in % ([20]; dosage 20 g/ha): 80%; Pre-emergence action against POLCO in % [13]: 80%
CCCn1nnnc1NC(=O)c1ccc(C(F)(F)F)c(C(=O)NC2CC2)c1C [Example 3-27] | 100 | 100 | – | – | 100 | 80 | – | 100 | – | 100 | 100 | 100 | – | 100 | 100 | 100 | 100 | 90 | 100 | 100 | Post-emergence action against SETVI in % ([20]; dosage 20 g/ha): 90%; Pre-emergence action against ALOMY (herbicidal activity) [5]: 90%; Pre-emergence action against VERPE in % [21]: 90%; Post-emergence action against VIOTR in % ([8]; 5 g/ha): 80%; Pre-emergence action against AVEFA in % [9]: 90%; Post-emergence action against PHBPU in % ([22]; dosage 5 g/ha): 90%; Post-emergence action against PHBPU in % ([22]; dosage 20 g/ha): 100%; Post-emergence action against MATIN in % ([14]; dosage 5 g/ha): 90%; Post-emergence action at 20 g/ha against AVEFA in % [23]: 90%; Pre-emergence action against PHBPU in % [24]: 90%; Pre-emergence action against MATIN in % ([19]; dosage 20 g/ha): 100%
CNC(=O)c1c(C(F)(F)F)ccc(C(=O)Nc2nnco2)c1SC [Example 5-58] | 100 | 100 | 90 | 90 | 100 | 90 | 90 | 80 | 90 | 90 | 100 | 100 | 90 | 100 | 80 | 100 | 90 | 90 | 100 | 100 | Post-emergence action against SETVI in % ([20]; dosage 5 g/ha): 80%; Post-emergence action against SETVI in % ([20]; dosage 20 g/ha): 100%; Pre-emergence action against SETVI in % [2]: 100%; Post-emergence action against VERPE in % [25]: 80%; Post-emergence action against STEME in % ([6]; dosage 5 g/ha): 90%; Pre-emergence action against VERPE in % [21]: 80%; Post-emergence action against VIOTR in % ([8]; 5 g/ha): 80%; Pre-emergence action against AVEFA in % [9]: 80%; Post-emergence action against PHBPU in % ([22]; dosage 5 g/ha): 80%; Post-emergence action against PHBPU in % ([22]; dosage 20 g/ha): 90%; Post-emergence action against ECHCG in % ([16]; dosage 5 g/ha): 80%; Post-emergence action against ECHCG in % ([16]; dosage 20 g/ha): 90%; Post-emergence action against ALOMY in % [18]: 80%; Pre-emergence action against MATIN in % ([19]; dosage 20 g/ha): 90%
